# Patent US6399353B1, “Papillomavirus: biosynthetic process and assays” (priority 1992, dated 2002)
# Experiments:
# HPV 31b = experiment: Virion production in CIN-612 raft cultures (electron microscopy, isopycnic gradient, Southern blot); format: cell-based, Human papillomavirus
# Experimental: (§1) Raft cultures were grown for 16 days then harvested, fixed in paraformaldehyde, embedded in paraffin and sectioned for immunohistostaining.
# Raft tissue cross-sections were fixed with glutaraldehyde and stained with uranyl acetate. […] Virions were commonly observed in bilobulated koilocytic and dyskeratotic nuclei in which the nuclear chromatin had condensed at the nuclear envelope. At higher magnification the particles could be seen superimposed on heterochromatin, as is often seen in vivo. These particles are not seen in nuclei of untreated CIN-612 raft cultures. Virions approximately 54 nm in diameter were also prevalent in the stratum corneum of raft cultures. […] Similar results have been obtained with material from five separate experiments with different passages of CIN-612 cells.
# Because infectious assays have not yet been developed for HPV, we sought to determine if the structures we observed in nuclei of CIN-612 cells were indeed virions. […]
# Eight TPA-treated raft cultures were harvested and virions were isolated following a series of low speed and high speed centrifugations. […] Fractions from the bottom of the gradient through fractions determined positive for HPV 31b DNA by dot blot hybridization were dialyzed and examined by Southern blot hybridization. […]
# CIN-612 cells = experiment: Immunostaining for keratin 10 and filaggrin in CIN-612 raft cultures; format: cell-based
# [1] = system: L1 major capsid protein in CIN-612 rafts; experiment: Immunostaining for L1 major capsid protein in CIN-612 raft cross-sections; format: cell-based; conditions: CIN-612 raft cultures, TPA treated; untreated showed no specific nuclear staining
# Experimental: as §1
# In vivo expression of viral late genes is only detected in the highly differentiated suprabasal cells of infected tissue (Pfister, et al., 1987). Using antiserum to the HPV 16 L1 major capsid protein (Bedell, et al., 1991), which cross reacts with the L1 major capsid protein of various HPV types (Bedell, et al., 1991), the production of the L1 major capsid protein in the CIN-612 rafts grown with or without TPA treatment was determined. CIN-612 raft cross-sections were examined by immunostaining with the VECTASTAIN Elite ABC Kit (Vector Laboratories. Inc., Burlingame, Calif.) after treatment with antiserum against the major late capsid protein, L1.
# [2] = CIN-612 rafts, 16 nM TPA, 16 to 24 h every four days, grown 16 days, immunostaining
compound,measurement,setting,value
"CCCCCCCCCCCCCC(=O)O[C@@H]1[C@@H](C)[C@@]2(O)[C@@H](C=C(CO)C[C@]3(O)C(=O)C(C)=C[C@@H]23)[C@@H]2C(C)(C)[C@]12OC(C)=O [TPA, 12-O-tetradecanoylphorbol-13-acetate]",production of virions,"HPV 31b; TPA added to media of organotypic (raft) cultures, electron microscopy",induced production of virions
same,yield of viral particles,"HPV 31b; eight TPA-treated raft cultures, CsCl gradient fractions (lanes 7 and 8), estimated from copy number standards",at least 40 million
same,induction of differentiation,"CIN-612 cells; CIN-612 raft cultures, 16 nM TPA in medium, 16 to 24 h every four days",Reproducible induction of differentiation
same,filaggrin expression,CIN-612 cells; [2],strong expression of filaggrin was observed throughout the stratum granulosum and into the stratum corneum
same,keratin 10 expression,CIN-612 cells; [2],"expressed throughout most of the suprabasal layers, including the stratum corneum"
same,expression of physiological markers of keratinocyte differentiation,CIN-612 cells; TPA added to media of organotypic (raft) cultures,increased expression
same,nuclear staining with L1 antiserum (major late capsid protein),[1],specific nuclear staining was seen in the stratum granulosum and in the stratum corneum
